Data: the NIST ThermoML archive (doi:10.1021/acs.jced.5b00613)
± gives the expanded uncertainty stated by the source.

Experiment: xn = mol fraction of the nth substance listed
Conditions: Liquid, Vibrating tube method

CCCCCCCCCC [decane] + CCCCCC
mass density [kg/m3]
Conditions | 100 kPa | 1000 kPa | 5000 kPa | 10000 kPa | 20000 kPa | 30000 kPa | 40000 kPa | 50000 kPa | 60000 kPa
278.15 K, x2 = 0.1992 | 732.4 ± 0.7 | 733 ± 0.7 | 735.8 ± 0.7 | 739.2 ± 0.7 | 745.6 ± 0.8 | 751.5 ± 0.8 | 756.9 ± 0.8 | 761.9 ± 0.9 | 767 ± 0.9
278.15 K, x2 = 0.3968 | 721.4 ± 0.7 | 722.1 ± 0.7 | 725.1 ± 0.7 | 728.7 ± 0.7 | 735.1 ± 0.8 | 741.4 ± 0.8 | 747 ± 0.9 | 752.2 ± 0.9 | 757.4 ± 1
278.15 K, x2 = 0.4978 | 715.4 ± 0.7 | 716 ± 0.7 | 719.2 ± 0.7 | 722.8 ± 0.7 | 729.5 ± 0.8 | 735.7 ± 0.8 | 741.4 ± 0.9 | 746.8 ± 0.9 | 752 ± 1
278.15 K, x2 = 0.5957 | 708.5 ± 0.7 | 709.1 ± 0.7 | 712.3 ± 0.7 | 716 ± 0.7 | 722.8 ± 0.8 | 729.3 ± 0.8 | 735.1 ± 0.9 | 740.6 ± 0.9 | 745.8 ± 1
278.15 K, x2 = 0.7978 | 692.6 ± 0.7 | 693.3 ± 0.7 | 696.8 ± 0.7 | 700.6 ± 0.8 | 707.9 ± 0.8 | 714.7 ± 0.8 | 720.8 ± 0.9 | 726.4 ± 1 | 731.9 ± 1
298.15 K, x2 = 0.1992 | 716.8 ± 0.7 | 717.5 ± 0.7 | 720.7 ± 0.7 | 724.6 ± 0.7 | 731.7 ± 0.8 | 738.1 ± 0.8 | 744 ± 0.9 | 749.6 ± 0.9 | 755 ± 1
298.15 K, x2 = 0.3968 | 705.6 ± 0.7 | 706.3 ± 0.7 | 709.7 ± 0.7 | 713.8 ± 0.7 | 721 ± 0.8 | 727.9 ± 0.8 | 734.2 ± 0.9 | 739.9 ± 0.9 | 745.4 ± 1
298.15 K, x2 = 0.4978 | 699.1 ± 0.7 | 699.6 ± 0.7 | 703.1 ± 0.7 | 707.3 ± 0.7 | 714.8 ± 0.8 | 721.7 ± 0.8 | 728 ± 0.9 | 733.8 ± 0.9 | 739.4 ± 1
298.15 K, x2 = 0.5957 | 692.1 ± 0.7 | 692.7 ± 0.7 | 696.2 ± 0.7 | 700.5 ± 0.8 | 708.2 ± 0.8 | 715.2 ± 0.8 | 721.6 ± 0.9 | 727.6 ± 0.9 | 733.3 ± 1
298.15 K, x2 = 0.7978 | 675.5 ± 0.7 | 676.3 ± 0.7 | 680.3 ± 0.7 | 684.8 ± 0.8 | 693 ± 0.8 | 700.4 ± 0.9 | 707.2 ± 0.9 | 713.4 ± 1 | 719.3 ± 1
323.15 K, x2 = 0.1992 | 697.5 ± 0.7 | 698.6 ± 0.7 | 702.3 ± 0.7 | 706.7 ± 0.7 | 714.8 ± 0.8 | 722.1 ± 0.8 | 728.6 ± 0.9 | 734.9 ± 0.9 | 740.7 ± 1
323.15 K, x2 = 0.3968 | 685.4 ± 0.7 | 686.5 ± 0.7 | 690.5 ± 0.7 | 695.3 ± 0.7 | 703.7 ± 0.8 | 711.3 ± 0.8 | 718.2 ± 0.9 | 724.6 ± 0.9 | 730.6 ± 1
323.15 K, x2 = 0.4978 | 678.2 ± 0.7 | 679.4 ± 0.7 | 683.6 ± 0.7 | 688.3 ± 0.8 | 697.1 ± 0.8 | 704.9 ± 0.8 | 711.9 ± 0.9 | 718.5 ± 1 | 724.6 ± 1
323.15 K, x2 = 0.5957 | 670.9 ± 0.7 | 672.1 ± 0.7 | 676.3 ± 0.7 | 681.3 ± 0.8 | 690.3 ± 0.8 | 698.3 ± 0.9 | 705.5 ± 0.9 | 712.1 ± 1 | 718.4 ± 1
323.15 K, x2 = 0.7978 | 653.4 ± 0.7 | 654.6 ± 0.7 | 659.3 ± 0.7 | 664.7 ± 0.8 | 674.3 ± 0.8 | 682.8 ± 0.9 | 690.4 ± 0.9 | 697.4 ± 1 | 703.9 ± 1.1
348.15 K, x2 = 0.1992 | 677 ± 0.7 | 678.1 ± 0.7 | 682.5 ± 0.7 | 687.7 ± 0.7 | 697.1 ± 0.8 | 705.3 ± 0.8 | 712.7 ± 0.9 | 719.5 ± 0.9 | 725.8 ± 1
348.15 K, x2 = 0.3968 | – | 665.7 ± 0.7 | 670.4 ± 0.7 | 676 ± 0.8 | 685.8 ± 0.8 | 694.4 ± 0.8 | 702.2 ± 0.9 | 709.3 ± 1 | 715.9 ± 1
348.15 K, x2 = 0.4978 | – | 658.2 ± 0.7 | 663.2 ± 0.7 | 668.8 ± 0.8 | 679 ± 0.8 | 687.8 ± 0.9 | 695.7 ± 0.9 | 703 ± 1 | 709.7 ± 1
348.15 K, x2 = 0.5957 | – | 650.3 ± 0.7 | 655.5 ± 0.7 | 661.4 ± 0.8 | 671.9 ± 0.8 | 681 ± 0.9 | 689.1 ± 0.9 | 696.4 ± 1 | 703.2 ± 1.1
348.15 K, x2 = 0.7978 | – | 631.9 ± 0.7 | 637.5 ± 0.7 | 644 ± 0.8 | 655.3 ± 0.8 | 665 ± 0.9 | 673.6 ± 1 | 681.4 ± 1 | 688.5 ± 1.1
373.15 K, x2 = 0.1992 | – | 657.7 ± 3 | 663 ± 3 | 669 ± 3 | 679.9 ± 3 | 689.3 ± 3 | 697.6 ± 3.1 | 705 ± 3.1 | 711.8 ± 3.1
373.15 K, x2 = 0.3968 | – | 645 ± 3 | 650.7 ± 3 | 657.1 ± 3 | 668.5 ± 3 | 678.3 ± 3 | 687 ± 3.1 | 694.8 ± 3.1 | 701.9 ± 3.1
373.15 K, x2 = 0.4978 | – | 636.7 ± 3 | 642.6 ± 3 | 649.4 ± 3 | 661.3 ± 3 | 671.4 ± 3 | 680.2 ± 3.1 | 688.2 ± 3.1 | 695.5 ± 3.1
373.15 K, x2 = 0.5957 | – | 628.1 ± 3 | 634.4 ± 3 | 641.4 ± 3 | 653.7 ± 3 | 664.1 ± 3 | 673.2 ± 3.1 | 681.3 ± 3.1 | 688.8 ± 3.1
373.15 K, x2 = 0.7978 | – | 608.4 ± 3 | 615.4 ± 3 | 623.2 ± 3 | 636.6 ± 3 | 647.8 ± 3.1 | 657.5 ± 3.1 | 666.2 ± 3.1 | 674 ± 3.1
423.15 K, x2 = 0.1992 | – | 614.4 ± 3 | 622.2 ± 3 | 630.6 ± 3 | 644.9 ± 3 | 656.8 ± 3 | 667.1 ± 3.1 | 676.2 ± 3.1 | 684.4 ± 3.1
423.15 K, x2 = 0.3968 | – | 599.1 ± 3 | 607.8 ± 3 | 617.1 ± 3 | 632.5 ± 3 | 645.3 ± 3.1 | 656.2 ± 3.1 | 665.7 ± 3.1 | 674.3 ± 3.1
423.15 K, x2 = 0.4978 | – | 589.4 ± 3 | 598.8 ± 3 | 608.6 ± 3 | 624.8 ± 3 | 637.9 ± 3.1 | 649 ± 3.1 | 658.8 ± 3.1 | 667.5 ± 3.1
423.15 K, x2 = 0.5957 | – | 578.9 ± 3 | 588.9 ± 3 | 599.2 ± 3 | 616.2 ± 3 | 629.8 ± 3.1 | 641.3 ± 3.1 | 651.3 ± 3.1 | 660.2 ± 3.1
423.15 K, x2 = 0.7978 | – | 554.6 ± 3 | 566.5 ± 3 | 578.7 ± 3 | 597.5 ± 3 | 612.4 ± 3.1 | 624.8 ± 3.1 | 635.7 ± 3.1 | 645.3 ± 3.1
463.15 K, x2 = 0.1992 | – | – | 586.3 ± 3 | 597.8 ± 3 | 616.1 ± 3 | 630.7 ± 3.1 | 642.9 ± 3.1 | 653.4 ± 3.1 | 662.7 ± 3.1
463.15 K, x2 = 0.3968 | – | – | 570.2 ± 3 | 583.3 ± 3 | 603.3 ± 3 | 618.8 ± 3.1 | 631.7 ± 3.1 | 642.8 ± 3.1 | 652.7 ± 3.1
463.15 K, x2 = 0.4978 | – | – | 559.5 ± 3 | 573.5 ± 3 | 594.6 ± 3 | 610.7 ± 3.1 | 624.1 ± 3.1 | 635.5 ± 3.1 | 645.6 ± 3.1
463.15 K, x2 = 0.5957 | – | – | 547.9 ± 3 | 563.1 ± 3 | 585.4 ± 3 | 602.3 ± 3.1 | 616 ± 3.1 | 627.6 ± 3.1 | 637.9 ± 3.2
463.15 K, x2 = 0.7978 | – | – | 521.1 ± 3 | 539.4 ± 3 | 565.1 ± 3 | 583.8 ± 3.1 | 598.5 ± 3.1 | 611 ± 3.1 | 621.8 ± 3.2
